From patent US12037583B2, “Compositions and methods for immunooncology” (Novartis AG, priority 2015, dated 2024)

The substances below were run on PDCD1 (assay: NGS editing of PDCD1 by dgRNA in HEK cells stably expressing Cas9). Settings: at least 3 experiments.
Format: cell-based, human
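Also: dgRNA lipofected into Cas9-expressing HEK cells, lysed after 24 h, target amplicon sequenced, editing = reads carrying insertions or deletions as percent of all reads including wild type.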
Description: Transfection of Cas9GFP-expressing HEK293 cells (HEK-293_Cas9GFP) was used for primary screening of target specific crRNAs. […] Selected crRNAs were chemically synthesized and delivered in a 96 well format. HEK-293-Cas9GFP cells were transfected with target crRNAs comprising a flagpole region of SEQ ID NO: 6607 in a 1:1 ratio with stock trRNA of SEQ ID NO: 6660. The transfection was mediated using lipofection technology according to manufacturer's protocol (DharmaFECT Duo, GE LifeSciences; or RNAiMax, LifeTechnologies). Transfected cells were lysed 24 h following lipofection and editing (e.g., cleavage) was detected within lysates with the T7E1 assay and/or next generation sequencing (NGS; below).
PCR primers were first designed around the target site, and the genomic area of interest PCR amplified. Additional PCR was performed according to manufacturer's protocols (Illumina) to add the necessary chemistry for sequencing. The amplicons were then sequenced on an Illumina MiSeq instrument. The reads were then aligned to the human reference genome (e.g., hg38) after eliminating those having low quality scores. From the resulting files containing the reads mapped to the reference genome (BAM files), reads which overlap the target region of interest were selected and the number of wild type reads versus the number of reads which contain an insertion or deletion was calculated. The editing percentage was then defined as the total number of reads with insertions or deletions over the total number of reads, including wild type. To determine the pattern of insertions and/or deletions that resulted from the edit, the aligned reads with indels were selected and the number of a reads with a given indel were summed.
Editing of CRISPR systems containing dgRNA molecules comprising targeting domains to sequences of PDCD1 were tested for editing in HEK (gRNA delivered to cells stably expressing Cas9) and CD3+ T cells (gRNA and Cas9 delivered as RNP) according to the methods described herein.
All mean editing % are as measured by NGS and are based on at least 3 experiments.

Substance | HEK (NGS) % Editing Mean [%]
CR000886: dgRNA targeting domain to PDCD1 (guide UGAUCUGCGCCUUGGGGGCC; targeting domain within dual guide RNA, chemistry not given here, further chemistry not given here; listed as Homo sapiens) | 2
CR000887: dgRNA targeting domain to PDCD1 (guide CUCUUUGAUCUGCGCCUUGG; targeting domain within dual guide RNA, chemistry not given here, further chemistry not given here; listed as Homo sapiens) | 46
CR000888: dgRNA targeting domain to PDCD1 (guide UCUCUUUGAUCUGCGCCUUG; targeting domain within dual guide RNA, chemistry not given here, further chemistry not given here; listed as Homo sapiens) | 4
CR000889: dgRNA targeting domain to PDCD1 (guide CUCUCUUUGAUCUGCGCCUU; targeting domain within dual guide RNA, chemistry not given here, further chemistry not given here; listed as Homo sapiens) | 3
CR000890: dgRNA targeting domain to PDCD1 (guide GCUCUCUUUGAUCUGCGCCU; targeting domain within dual guide RNA, chemistry not given here, further chemistry not given here; listed as Homo sapiens) | 5
CR000891: dgRNA targeting domain to PDCD1 (guide CGCAGAUCAAAGAGAGCCUG; targeting domain within dual guide RNA, chemistry not given here, further chemistry not given here; listed as Homo sapiens) | 29
CR000892: dgRNA targeting domain to PDCD1 (guide GCAGAUCAAAGAGAGCCUGC; targeting domain within dual guide RNA, chemistry not given here, further chemistry not given here; listed as Homo sapiens) | 45
CR000893: dgRNA targeting domain to PDCD1 (guide AGAGCCUGCGGGCAGAGCUC; targeting domain within dual guide RNA, chemistry not given here, further chemistry not given here; listed as Homo sapiens) | 10
CR000894: dgRNA targeting domain to PDCD1 (guide AGGGUUUGGAACUGGCCGGC; targeting domain within dual guide RNA, chemistry not given here, further chemistry not given here; listed as Homo sapiens) | 19
CR000895: dgRNA targeting domain to PDCD1 (guide CACCAGGGUUUGGAACUGGC; targeting domain within dual guide RNA, chemistry not given here, further chemistry not given here; listed as Homo sapiens) | 49
CR000896: dgRNA targeting domain to PDCD1 (guide CGGCCAGUUCCAAACCCUGG; targeting domain within dual guide RNA, chemistry not given here, further chemistry not given here; listed as Homo sapiens) | 42
CR000897: dgRNA targeting domain to PDCD1 (guide CAACCACCAGGGUUUGGAAC; targeting domain within dual guide RNA, chemistry not given here, further chemistry not given here; listed as Homo sapiens) | 26
CR000898: dgRNA targeting domain to PDCD1 (guide CAGUUCCAAACCCUGGUGGU; targeting domain within dual guide RNA, chemistry not given here, further chemistry not given here; listed as Homo sapiens) | 11
CR000899: dgRNA targeting domain to PDCD1 (guide CGACACCAACCACCAGGGUU; targeting domain within dual guide RNA, chemistry not given here, further chemistry not given here; listed as Homo sapiens) | 5
CR000903: dgRNA targeting domain to PDCD1 (guide CGCCCACGACACCAACCACC; targeting domain within dual guide RNA, chemistry not given here, further chemistry not given here; listed as Homo sapiens) | 54
CR000904: dgRNA targeting domain to PDCD1 (guide CUGGUGGUUGGUGUCGUGGG; targeting domain within dual guide RNA, chemistry not given here, further chemistry not given here; listed as Homo sapiens) | 70
CR000914: dgRNA targeting domain to PDCD1 (guide CUGCAGGGACAAUAGGAGCC; targeting domain within dual guide RNA, chemistry not given here, further chemistry not given here; listed as Homo sapiens) | 5
CR000915: dgRNA targeting domain to PDCD1 (guide ACAAUAGGAGCCAGGCGCAC; targeting domain within dual guide RNA, chemistry not given here, further chemistry not given here; listed as Homo sapiens) | 35
CR000916: dgRNA targeting domain to PDCD1 (guide CAGGGGCUGGCCGGUGCGCC; targeting domain within dual guide RNA, chemistry not given here, further chemistry not given here; listed as Homo sapiens) | 5
CR000917: dgRNA targeting domain to PDCD1 (guide AAAAGAGUGAGACUCACCAG; targeting domain within dual guide RNA, chemistry not given here, further chemistry not given here; listed as Homo sapiens) | 43
CR000918: dgRNA targeting domain to PDCD1 (guide GAAAAGAGUGAGACUCACCA; targeting domain within dual guide RNA, chemistry not given here, further chemistry not given here; listed as Homo sapiens) | 50
CR000919: dgRNA targeting domain to PDCD1 (guide GGAAAAGAGUGAGACUCACC; targeting domain within dual guide RNA, chemistry not given here, further chemistry not given here; listed as Homo sapiens) | 42
